Tested on: apyrase
Assay: Apyrase inhibition assay (screen for apyrase inhibitors, phosphate release read at 630 nm)
Format: biochemical
Conditions: inhibitor conc at 1 mM (10 μl added), 3 mM ATP, pH 6.5, room temperature 1 hr
Procedure: Apyrase inhibitors useful as enhancers of pesticidal activity are assessed using an in vitro assay. The method of Windsor, Bio Techniques 33:1024-1030 (November 2002) was used as follows
• 96 well plates were used for the assay: (Greiner bio-one: REF-655901-96 well, PS, F-bottom, Clear, Non-binding)
• Reaction Buffer: 60 mM Hepes; 3 mM MgCl2, 3 mM CaCl2) and 3 mM ATP (pH 6.5) • Development Buffer A: 2% aqueous ammonium molybdate • Development Buffer B: 11% ascorbic acid in 37.5% TCA in water • Stop buffer C: 2% trisodium citrate in 2% acetic acid solution in water
• Add 100 μl of reaction buffer to each well. • Add 10 μl of DMSO (control) or inhibitor/compound or compounds such as N1915 or orthovanadate to each well. (use inhibitor conc at 1 mM; orthovanadate at 2 mM and N1915 at 1 mM) • Add 10 μl of apyrase (concentration based on optimization—Dilute 1 U/μl enzyme to different concentrations such as 0.1 U, 0.05 U, 0.0025, 0.001 U, 0.0005 U—to find a good range) • Incubate plate at room temperature for 1 hr • Mix development buffer A and B in the ratio of 1:1.5 (just before use). • Add 50 μl of A: B mix in each well (incubate for 2 mins) • Add 50 μl of C in each well • Measure/Read Absorbance of plate @630 nm
Inhibitory data for the apyrase assay described above are provided for selected compounds in Table 3. D is inhibition of 0% to 10%, C is inhibition from 10% to 20%, B is inhibition from 20% to 30%, and A is inhibition above 30%. Blank entries signify compounds that were not tested.

Structure (SMILES)	Inhibition
CCCc1ccc(S(=O)(=O)Nc2ccc(S(=O)(=O)Nc3nccs3)cc2)cc1 [Compound A-85, 4-propyl-N-(4-(N-(thiazol-2-yl)sulfamoyl)phenyl)benzene-sulfonamide]	D (D is inhibition of 0% to 10%)
Cc1cccc(NS(=O)(=O)c2ccc(F)cc2)c1 [Compound A-58, 4-fluoro-N-(m-tolyl)benzenesulfonamide]	D (D is inhibition of 0% to 10%)
CCCc1ccc(S(=O)(=O)Nc2cc(OC)c(OC)cc2C(=O)O)cc1 [Compound A-45, 4,5-dimethoxy-2-((4-propylphenyl)sulfonamido) benzoic acid]	C (C is inhibition from 10% to 20%)
CCCc1ccc(S(=O)(=O)Nc2cccc(-c3nnnn3C3CC3)c2)cc1 [Compound A-28, N-(3-(1-cyclopropyl-1H-tetrazol-5-yl)phenyl)-4-propylbenzenesulfonamide]	D (D is inhibition of 0% to 10%)
CCCc1ccc(S(=O)(=O)Nc2cccc(NC(C)=O)c2)cc1 [Compound A-77, N-(3-((4-propylphenyl)sulfonamido)phenyl)acetamide]	D (D is inhibition of 0% to 10%)
CCCc1ccc(S(=O)(=O)Nc2ccccc2-n2cc(C(=O)OC)nn2)cc1 [Compound A-39, methyl 1-(2-((4-propylphenyl)sulfonamido)phenyl)-1H-1,2,3-triazole-4-carboxylate]	D (D is inhibition of 0% to 10%)
CCCc1ccc(S(=O)(=O)Nc2ccc(F)c(NC(C)=O)c2)cc1 [Compound A-35, N-(2-fluoro-5-((4-propylphenyl)sulfonamido)phenyl)acetamide]	D (D is inhibition of 0% to 10%)
CCCc1ccc(S(=O)(=O)Nc2ccc(S(=O)(=O)CC)cc2)cc1 [Compound A-32, N-(4-(ethylsulfonyl)phenyl)-4-propylbenzenesulfonamide]	C (C is inhibition from 10% to 20%)
CCCc1ccc(S(=O)(=O)Nc2ccc(NC(=O)C3CC3)cc2)cc1 [Compound A-31, N-(4-((4-propylphenyl)sulfonamido)phenyl)cyclopropanecarbox-amide]	D (D is inhibition of 0% to 10%)
Cc1cccc(NS(=O)(=O)c2ccc(C(=O)O)cc2)c1 [Compound A-65, 4-(N-(m-tolyl)sulfamoyl)benzoic acid]	B (B is inhibition from 20% to 30%)
CCCC(=O)Nc1cccc(NS(=O)(=O)c2ccc(CCC)cc2)c1C [Compound A-118, N-(2-methyl-3-((4-propylphenyl)sulfonamido)phenyl)butyramide]	D (D is inhibition of 0% to 10%)
CCCc1ccc(S(=O)(=O)Nc2ccc(S(=O)(=O)N(C)C3CCCCC3)cc2)cc1 [Compound A-79, N-cyclohexyl-N-methyl-4-((4-propylphenyl)sulfonamido) benzenesulfonamide]	A (A is inhibition above 30%)
CCCc1ccc(S(=O)(=O)Nc2ccccc2C(=O)OC)cc1 [Compound A-53, methyl 2-((4-propylphenyl)sulfonamido) benzoate]	C (C is inhibition from 10% to 20%)
CCCc1ccc(S(=O)(=O)Nc2ccccc2Cc2ccccc2)cc1 [Compound A-91, N-(2-benzylphenyl)-4-propylbenzenesulfonamide]	B (B is inhibition from 20% to 30%)
CCCc1ccc(S(=O)(=O)Nc2cccc(S(N)(=O)=O)c2)cc1 [Compound A-72, 4-propyl-N-(3-sulfamoylphenyl)benzene-sulfonamide]	C (C is inhibition from 10% to 20%)
CCCc1ccc(S(=O)(=O)Nc2cc(Cl)ccc2OC)cc1 [Compound A-74, N-(5-chloro-2-methoxyphenyl)-4-propylbenzenesulfonamide]	C (C is inhibition from 10% to 20%)
CCCc1ccc(S(=O)(=O)Nc2cc(Cl)ccc2-n2cncn2)cc1 [Compound A-122, N-(5-chloro-2-(1H-1,2,4-triazol-1-yl)phenyl)-4-propylbenzenesulfonamide]	C (C is inhibition from 10% to 20%)
CCCc1ccc(S(=O)(=O)Nc2ccc(C(=O)O)cc2)cc1 [Compound A-44, 4-((4-propylphenyl)sulfonamido) benzoic acid]	D (D is inhibition of 0% to 10%)
CCCc1ccc(S(=O)(=O)Nc2cccc(F)c2C(=O)O)cc1 [Compound A-42, 2-fluoro-6-((4-propylphenyl)sulfonamido) benzoic acid]	B (B is inhibition from 20% to 30%)
CCCc1ccc(S(=O)(=O)Nc2cc(OC)c(Cl)cc2OC)cc1 [Compound A-68, N-(4-chloro-2,5-dimethoxyphenyl)-4-propylbenzenesulfonamide]	D (D is inhibition of 0% to 10%)
CCCc1ccc(S(=O)(=O)Nc2ccc(S(=O)(=O)NC)cc2)cc1 [Compound A-80, N-methyl-4-((4-propylphenyl)sulfonamido) benzenesulfonamide]	D (D is inhibition of 0% to 10%)
CCCc1ccc(S(=O)(=O)Nc2cc(C)ccc2OC)cc1 [Compound A-88, N-(2-methoxy-5-methylphenyl)-4-propylbenzenesulfonamide]	D (D is inhibition of 0% to 10%)

Further lines, results first:

Inhibition	Structure (SMILES)
C (C is inhibition from 10% to 20%)	CCCc1ccc(S(=O)(=O)Nc2cccc([N+](=O)[O-])c2)cc1 [Compound A-70, N-(3-nitrophenyl)-4-propylbenzenesulfonamide]
A (A is inhibition above 30%)	CCCc1ccc(S(=O)(=O)Nc2ccc(CC(=O)O)cc2)cc1 [Compound A-46, 2-(4-((4-propylphenyl)sulfonamido)phenyl)acetic acid]
C (C is inhibition from 10% to 20%)	CCCc1ccc(S(=O)(=O)Nc2cc(Cl)ccc2Sc2nncn2C)cc1 [Compound A-67, N-(5-chloro-2-((4-methyl-4H-1,2,4-triazol-3-yl)thio)phenyl)-4-propylbenzenesulfonamide]
D (D is inhibition of 0% to 10%)	CCCc1ccc(S(=O)(=O)Nc2ccccc2Br)cc1 [Compound A-55, N-(2-bromophenyl)-4-propylbenzenesulfonamide]
C (C is inhibition from 10% to 20%)	CCCc1ccc(S(=O)(=O)Nc2ccc(F)cc2C(=O)O)cc1 [Compound A-43, 5-fluoro-2-((4-propylphenyl)sulfonamido) benzoic acid]
A (A is inhibition above 30%)	CCCc1ccc(S(=O)(=O)Nc2ccccc2NS(=O)(=O)c2ccc(F)cc2)cc1 [Compound A-94, 4-fluoro-N-(2-((4-propylphenyl)sulfonamido)phenyl)benzenesulfonamide]
D (D is inhibition of 0% to 10%)	Cl.NCCNS(=O)(=O)c1ccc(-c2ccccc2)cc1 [Compound A-15, N-(2-aminoethyl)-[1,1′-biphenyl]-4-sulfonamide hydrochloride]
D (D is inhibition of 0% to 10%)	CCCc1ccc(S(=O)(=O)Nc2cc(Cl)c(OC)cc2OC)cc1 [Compound A-49, N-(5-chloro-2,4-dimethoxyphenyl)-4-propylbenzenesulfonamide]
B (B is inhibition from 20% to 30%)	CCCc1ccc(S(=O)(=O)Nc2c(C)cccc2C)cc1 [Compound A-92, N-(2,6-dimethylphenyl)-4-propylbenzenesulfonamide]
C (C is inhibition from 10% to 20%)	Cc1cccc(NS(=O)(=O)c2ccc(OC(F)(F)F)cc2)c1 [Compound A-63, N-(m-tolyl)-4-(trifluoromethoxy)benzenesul-fonamide]
D (D is inhibition of 0% to 10%)	CCCc1ccc(S(=O)(=O)Nc2ccc(C)c(S(N)(=O)=O)c2)cc1 [Compound A-104, N-(4-methyl-3-sulfamoylphenyl)-4-propylbenzenesulfonamide]
D (D is inhibition of 0% to 10%)	O=S(=O)(c1ccc(-c2ccccc2)cc1)N1CCN(C2CCOCC2)CC1 [Compound A-11, 1-([1,1′-biphenyl]-4-ylsulfonyl)-4-(tetrahydro-2H-pyran-4-yl)piperazine]
A (A is inhibition above 30%)	CCCc1ccc(S(=O)(=O)Nc2ccccc2CC(=O)NC)cc1 [Compound A-41, N-methyl-2-(2-((4-propylphenyl)sulfonamido)phenyl)acetamide]
C (C is inhibition from 10% to 20%)	CCCc1ccc(S(=O)(=O)Nc2ccccc2-n2cnnn2)cc1 [Compound A-109, N-(2-(1H-tetrazol-1-yl)phenyl)-4-propylbenzenesulfonamide]
D (D is inhibition of 0% to 10%)	O=S(=O)(c1ccc(-c2ccccc2)cc1)N1CCc2ccccc21 [Compound A-114]
D (D is inhibition of 0% to 10%)	CCCc1ccc(S(=O)(=O)Nc2ccccc2C(F)(F)F)cc1 [Compound A-73, 4-propyl-N-(2-(trifluoromethyl)phenyl) benzenesulfonamide]
B (B is inhibition from 20% to 30%)	CCCc1ccc(S(=O)(=O)Nc2ccccc2CC)cc1 [Compound A-48, N-(2-ethylphenyl)-4-propylbenzenesulfonamide]
C (C is inhibition from 10% to 20%)	Cc1cccc(NS(=O)(=O)c2ccc(Cl)cc2)c1 [Compound A-56, 4-chloro-N-(m-tolyl)benzenesulfonamide]
